This passage reports T/C results from PubChem BioAssay AID256 (DTP/NCI, 2004).

Values joined by “and” are separate entries in the source; they are usually repeats but may differ in a detail not shown here. Identical values can stand only once. Inconclusive results and toxic doses are left out.

This experiment deals with CD2F1 mice, L1210 leukemia ip, survival T/C. The experiment is described as follows: NCI In Vivo Anticancer Drug Screen. Data for tumor model L1210 Leukemia (intraperitoneal) in CD2F1 (CDF1) mice. The following applies: higher = longer survival. Summed up: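 Implant tumor; dose compound or vehicle; measure endpoint in both groups; report treated divided by control.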
The mark [1] stands for this setting: endpoint: mean survival time, dose: 100.0 mg/kg/injection, schedule: Q01DX009 (ip), vehicle: saline with Tween-80.
[2] abbreviates: endpoint: mean survival time, dose: 200.0 mg/kg/injection, schedule: Q01DX009 (ip), vehicle: saline with Tween-80.
[3] abbreviates: endpoint: mean survival time, dose: 400.0 mg/kg/injection, schedule: Q01DX009 (ip), vehicle: saline with Tween-80.
[4] abbreviates: endpoint: mean survival time, dose: 50.0 mg/kg/injection, schedule: Q01DX009 (ip), vehicle: saline.
Setting [5] is: endpoint: mean survival time, dose: 100.0 mg/kg/injection, schedule: Q04DX003 (ip), vehicle: saline with Tween-80.
[6] abbreviates: endpoint: mean survival time, dose: 200.0 mg/kg/injection, schedule: Q04DX003 (ip), vehicle: saline with Tween-80.
The mark [7] stands for this setting: endpoint: mean survival time, dose: 100.0 mg/kg/injection, schedule: Q04DX003 (ip), vehicle: saline.
Where [8] appears, read: endpoint: mean survival time, dose: 200.0 mg/kg/injection, schedule: Q04DX003 (ip), vehicle: saline.
Setting [9] is: endpoint: mean survival time, dose: 400.0 mg/kg/injection, schedule: Q04DX003 (ip), vehicle: saline.
[10] abbreviates: endpoint: mean survival time, dose: 25.0 mg/kg/injection, schedule: Q01DX009 (ip), vehicle: saline with Tween-80.
The mark [11] stands for this setting: endpoint: mean survival time, dose: 50.0 mg/kg/injection, schedule: Q01DX009 (ip), vehicle: saline with Tween-80.
[12] abbreviates: endpoint: mean survival time, dose: 100.0 mg/kg/injection, schedule: Q04DX003 (ip), vehicle: Klucel (hydroxypropylcellulose) (HPC).
Setting [13] is: endpoint: mean survival time, dose: 200.0 mg/kg/injection, schedule: Q04DX003 (ip), vehicle: Klucel (hydroxypropylcellulose) (HPC).
The mark [14] stands for this setting: endpoint: mean survival time, dose: 400.0 mg/kg/injection, schedule: Q04DX003 (ip), vehicle: Klucel (hydroxypropylcellulose) (HPC).

In the case of `CN(C)CCCN=Cc1cc([N+](=O)[O-])ccc1O.CN(C)CCCN=Cc1cc([N+](=O)[O-])ccc1O.[Ni+2]`, the T/C was 91 % of control (endpoint: mean survival time, dose: 6.25 mg/kg/injection, schedule: Q04DX002 (ip), vehicle: saline with Tween-80); 91 % of control (endpoint: mean survival time, dose: 12.5 mg/kg/injection, schedule: Q04DX002 (ip), vehicle: saline with Tween-80); 93 % of control (endpoint: mean survival time, dose: 50.0 mg/kg/injection, schedule: Q04DX002 (ip), vehicle: saline with Tween-80).

Take `[Cl][Mo]([Cl])([Cl])[Cl].[Cl][Mo]([Cl])([Cl])[Cl]`: the T/C was 112 % of control (endpoint: mean survival time, dose: 100.0 mg/kg/injection, schedule: Q04DX002 (ip), vehicle: saline); 87 % of control (endpoint: mean survival time, dose: 200.0 mg/kg/injection, schedule: Q04DX002 (ip), vehicle: saline); 108 % of control (endpoint: mean survival time, dose: 400.0 mg/kg/injection, schedule: Q04DX002 (ip), vehicle: saline).

Consider `Clc1cccc(Cl)c1C(Cl)Cl`, for which the T/C was 98 % of control under setting [1], 98 % of control under setting [2] and 98 % of control under setting [3].

Take `c1ccc([B-]2([C+]3CCCCC3)N3CCCCC3C3CCCCN32)cc1` (configuration not stated): the T/C reads like this: (endpoint: mean survival time, dose: 3.12 mg/kg/injection, schedule: Q01DX009 (ip), vehicle: saline) 90 % of control; (endpoint: mean survival time, dose: 6.25 mg/kg/injection, schedule: Q01DX009 (ip), vehicle: saline) 95 % of control; (endpoint: mean survival time, dose: 12.5 mg/kg/injection, schedule: Q01DX009 (ip), vehicle: saline) 101 % of control; (endpoint: mean survival time, dose: 25.0 mg/kg/injection, schedule: Q01DX009 (ip), vehicle: saline) 102 % of control; under setting [4], 86 % of control.

For `COc1cc(-c2ccc(-[n+]3nc(Cc4ccc5c(c4)OCO5)nn3-c3ccccc3)c(OC)c2)ccc1-[n+]1nc(Cc2ccc3c(c2)OCO3)nn1-c1ccccc1`, the T/C is 98 % of control under setting [5] and 97 % of control under setting [6].

Consider `OC1(c2ccccc2)CN(Cc2ccccc2)CCO1` (configuration not stated), for which the T/C under setting [4] was 104 % of control; the T/C (endpoint: mean survival time, dose: 50.0 mg/kg/injection, schedule: Q04DX003 (ip), vehicle: saline) is 93 % of control; the T/C (endpoint: mean survival time, dose: 100.0 mg/kg/injection, schedule: Q01DX009 (ip), vehicle: saline) is 102 % of control; the T/C under setting [7] was 101 % of control; the T/C (endpoint: mean survival time, dose: 200.0 mg/kg/injection, schedule: Q01DX009 (ip), vehicle: saline) was 98 % of control; the T/C under setting [8] was 102 % of control.

On to `O=c1c2ccccc2sc2ccc3c(ccc4sc5ccccc5c(=O)c43)c12`, for which the T/C reads like this: (endpoint: mean survival time, dose: 100.0 mg/kg/injection, schedule: Q01DX001 (ip), vehicle: saline with Tween-80) 93 % of control; (endpoint: mean survival time, dose: 200.0 mg/kg/injection, schedule: Q01DX001 (ip), vehicle: saline with Tween-80) 100 % of control; (endpoint: mean survival time, dose: 400.0 mg/kg/injection, schedule: Q01DX001 (ip), vehicle: saline with Tween-80) 92 % of control.

Consider `CCCCS(=O)(=O)OCCCCOS(=O)(=O)CCCC`, for which the T/C under setting [7] was 96 % of control, the T/C under setting [8] was 95 % of control and the T/C under setting [9] was 101 % of control.

As to `c1ccc(-c2ncnc3c2Cc2ccccc2-3)cc1`, the T/C is, setting by setting: (endpoint: mean survival time, dose: 100.0 mg/kg/injection, schedule: Q01DX009 (ip), vehicle: saline sonified) 94 % of control; (endpoint: mean survival time, dose: 200.0 mg/kg/injection, schedule: Q01DX009 (ip), vehicle: saline sonified) 100 % of control; (endpoint: mean survival time, dose: 400.0 mg/kg/injection, schedule: Q01DX009 (ip), vehicle: saline sonified) 98 % of control.

In the case of `CC(O)CNC1CCCCC1` (configuration not stated), the T/C reads like this: under setting [10], 97 % of control; under setting [11], 97 % of control; under setting [1], 97 % of control.

For the molecule `CCN(CC)CCCC(C)(NCc1ccccc1)[P+](=O)O` (configuration not stated), the T/C under setting [1] is 90 % of control; the T/C under setting [7] was 96 % of control; the T/C under setting [2] is 86 % of control; the T/C under setting [8] is 91 % of control; the T/C under setting [3] was 94 % of control; the T/C under setting [9] is 94 % of control.

`Clc1cccc(-c2cc(-c3ccccc3)[nH]n2)c1`: the T/C was 95 % of control (endpoint: mean survival time, dose: 100.0 mg/kg/injection, schedule: Q01DX001 (ip), vehicle: saline sonified); 97 % of control (endpoint: mean survival time, dose: 200.0 mg/kg/injection, schedule: Q01DX001 (ip), vehicle: saline sonified); 97 % of control (endpoint: mean survival time, dose: 400.0 mg/kg/injection, schedule: Q01DX001 (ip), vehicle: saline sonified).

For `Clc1cc(Cl)c2nc[nH]c2c1`, the T/C is, setting by setting: under setting [11], 91 % of control; under setting [1], 95 % of control.

As to `C#CCCOC(=O)Nc1ccccc1`, the T/C is 97 % of control under setting [12], 100 % of control under setting [13] and 110 % of control under setting [14].

In the case of `C=C1C(=O)O[C@@H]2/C=C(/C)[C@@]3(O)C=C[C@](C)(C[C@@H](OC(=O)/C(=C\C)COC(C)=O)[C@@H]12)O3`, the T/C is 88 % of control (endpoint: mean survival time, dose: 6.0 mg/kg/injection, schedule: Q01DX009 (ip), vehicle: saline with Tween-80); 94 % of control (endpoint: mean survival time, dose: 8.0 mg/kg/injection, schedule: Q01DX009 (ip), vehicle: saline with Tween-80); 94 % of control (endpoint: mean survival time, dose: 12.0 mg/kg/injection, schedule: Q01DX009 (ip), vehicle: saline with Tween-80); 98 % of control (endpoint: mean survival time, dose: 18.0 mg/kg/injection, schedule: Q01DX009 (ip), vehicle: saline with Tween-80); 93 % of control (endpoint: mean survival time, dose: 27.0 mg/kg/injection, schedule: Q01DX009 (ip), vehicle: saline with Tween-80).

Turning to `CC(=O)Nc1cc(NC(C)=O)cc(N(CCCl)CCCl)c1`, the T/C (endpoint: mean survival time, dose: 12.5 mg/kg/injection, schedule: Q01DX005 (ip), vehicle: water) was 100 % of control; the T/C (endpoint: mean survival time, dose: 25.0 mg/kg/injection, schedule: Q01DX005 (ip), vehicle: water) was 106 % of control; the T/C (endpoint: mean survival time, dose: 50.0 mg/kg/injection, schedule: Q01DX005 (ip), vehicle: water) is 101 % of control.

Take `Cc1ccc2c(c1)Sc1ccc3ccccc3c1N2`: the T/C runs as follows: under setting [1], 95 % of control; under setting [12], 96 % of control; under setting [2], 97 % of control; under setting [13], 95 % of control; under setting [3], 97 % of control; under setting [14], 98 % of control.

With `CCOC(=O)C1CC1C(=O)OCC` (configuration not stated), the T/C is, setting by setting: under setting [1], 88 % of control; under setting [5], 100 % of control; under setting [2], 104 % of control; under setting [6], 96 % of control; under setting [3], 100 % of control; (endpoint: mean survival time, dose: 400.0 mg/kg/injection, schedule: Q04DX003 (ip), vehicle: saline with Tween-80) 103 % of control.

With `CC[Si](CC)(CC)c1ccc(CCNCCS)s1`, the T/C runs as follows: (endpoint: mean survival time, dose: 37.5 mg/kg/injection, schedule: Q01DX009 (ip), vehicle: saline) 107 % of control; (endpoint: mean survival time, dose: 75.0 mg/kg/injection, schedule: Q01DX009 (ip), vehicle: saline) 101 % of control.

With `Cn1nnc2c(C(N)=O)ncn2c1=O`, the T/C by setting is: (endpoint: median survival time, dose: 6.25 mg/kg/injection, schedule: Q01DX009 (ip), vehicle: saline with Tween-80) 111 % of control; (endpoint: median survival time, dose: 12.5 mg/kg/injection, schedule: Q01DX009 (ip), vehicle: saline with Tween-80) 122 % of control; (endpoint: median survival time, dose: 25.0 mg/kg/injection, schedule: Q01DX009 (ip), vehicle: saline with Tween-80) 151 % of control; (endpoint: median survival time, dose: 50.0 mg/kg/injection, schedule: Q01DX009 (ip), vehicle: saline with Tween-80) 159 % of control and 168 % of control; (endpoint: median survival time, dose: 100.0 mg/kg/injection, schedule: Q01DX009 (ip), vehicle: saline with Tween-80) 182 % of control and 193 % of control; (endpoint: median survival time, dose: 200.0 mg/kg/injection, schedule: Q01DX009 (ip), vehicle: saline with Tween-80) 121 % of control and 93 % of control.

Take `CC(C)c1ccc(/C=C2/CCCCC2=O)cc1`: the T/C by setting is: under setting [10], 93 % of control; under setting [11], 97 % of control; under setting [1], 97 % of control.

Consider `O=C(Nc1ccccc1)O/N=C(/c1ccccc1)c1ccccn1`, for which the T/C was 104 % of control (endpoint: mean survival time, dose: 100.0 mg/kg/injection, schedule: Q01DX001 (ip), vehicle: other); 98 % of control (endpoint: mean survival time, dose: 200.0 mg/kg/injection, schedule: Q01DX001 (ip), vehicle: other); 101 % of control (endpoint: mean survival time, dose: 400.0 mg/kg/injection, schedule: Q01DX001 (ip), vehicle: other).
